Source: patent US12377104B1, “Methods for treating a fatty liver disease” (Madrigal Pharmaceuticals, Inc., priority 2024, dated 2025)

Legend:
NASH liver fibrosis = experiment: MAESTRO-NASH: qFibrosis assessment of biopsies; format: in vivo, human; details: Week 52 biopsy, compared with placebo
From the text: Fibrosis stage predicts clinical outcomes in NASH/metabolic-associated steatohepatitis (MASH), with liver biopsies as the regulatory standard. Ordinal fibrosis staging on stained slides may limit the ability to visualize dynamic fibrosis features throughout the liver lobule. qFibrosis, an AI-driven fibrosis assessment methodology that utilizes laser driven (SHG) collagen detection on unstained biopsy slides, has identified 30 specific fibrotic features on NASH liver biopsies that may be predictive of liver-related clinical outcomes, progression to cirrhosis and decompensated cirrhosis based on the SteatoSITE population. Non-invasive measures such as baseline MRE or FibroScan VCTE, ELF, and other non-invasive fibrosis markers also predict progression to cirrhosis and decompensated cirrhosis. SteatoSITE contains integrated clinical and pathological data from 940 cases across the NAFLD spectrum with outcome data from electronic health record and pathologist-assigned fibrosis stage and RNA on baseline biopsy. […] Baseline and Week 52 biopsies from MAESTRO-NASH were analyzed for 30 qFibrosis features identified by SteatoSITE that are associated with progression of NASH fibrosis to liver decompensation, and six features with the strongest correlations between baseline pathologist scoring and non-invasive tests were identified.

[1] = test system: adults with biopsy-confirmed NASH; experiment: MAESTRO-NASH: biomarkers PRO-C3 and P3NP/ELF; format: in vivo, human
Experimental: Pearson's correlation was used to examine the association between 2 PRO-C3 enzyme-linked immunosorbent assay (ELISA) assay methods (ELISA GEN1 and ELISA GEN2, NORDIC BIOSCIENCE) using PRO-C3 baseline data (N=919). The remainder of the analyses used the ELISA GEN2 assay. Mean SD or SE and median [Q1, Q3]were calculated to summarize PRO-C3 data. […] Mean difference with 95% CI and nominal P-values were obtained from the ANCOVA. Scatterplots and Spearman's correlations with 95% CIs were used to assess the associations between P3NP/ELF and PRO-C3 both at baseline and change from baseline at Week 52.

CYP2C8 = molecular target: T1, CYP2C8 (Homo sapiens, UniProt P10632); experiment: Concomitant use with a CYP2C8 inhibitor; parameters: from tissue; host or cells: human subjects in vivo (endogenous enzyme); details: in vivo
T1 sequence (P10632 1-490): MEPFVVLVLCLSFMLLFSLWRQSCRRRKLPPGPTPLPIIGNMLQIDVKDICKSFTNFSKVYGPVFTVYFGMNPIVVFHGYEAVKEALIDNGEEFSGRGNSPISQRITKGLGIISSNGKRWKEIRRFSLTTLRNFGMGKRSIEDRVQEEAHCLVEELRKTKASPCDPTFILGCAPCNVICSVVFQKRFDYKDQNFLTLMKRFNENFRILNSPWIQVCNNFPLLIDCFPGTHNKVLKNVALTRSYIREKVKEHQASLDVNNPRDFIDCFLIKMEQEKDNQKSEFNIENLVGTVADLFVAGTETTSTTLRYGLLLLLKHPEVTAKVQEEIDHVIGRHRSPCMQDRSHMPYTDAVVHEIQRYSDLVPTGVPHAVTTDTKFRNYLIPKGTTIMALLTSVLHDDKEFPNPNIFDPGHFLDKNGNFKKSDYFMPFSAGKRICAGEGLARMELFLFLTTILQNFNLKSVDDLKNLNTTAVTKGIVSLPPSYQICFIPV

[2] = F1B patients only, 80 mg, Week 52
[3] = F1B patients only, 100 mg, Week 52
[4] = F2 patients only, 80 mg, Week 52
[5] = F2 patients only, 100 mg, Week 52
[6] = F3 patients only, 80 mg, Week 52
[7] = F3 patients only, 100 mg, Week 52
[8] = Overall, 80 mg, Week 52, ELISA GEN2
[9] = Overall, 100 mg, Week 52, ELISA GEN2

## CC(C)c1cc(Oc2c(Cl)cc(-n3nc(C#N)c(=O)[nH]c3=O)cc2Cl)n[nH]c1=O [Resmetirom, 2-(3,5-dichloro-4-((5-isopropyl-6-oxo-1,6-dihydropyridazin-3-yl)oxy)phenyl)-3,5-dioxo-2,3,4,5-tetrahydro-1,2,4-triazine-6-carbonitrile]
NASH liver fibrosis
  total qFibrosis scores: highly significant improvement in fibrosis
[1]; 80 mg, Week 52
  PRO-C3 change from baseline: −17.93 (4.61)
  mean difference vs placebo in PRO-C3 change from baseline: −16.9
[1]; 100 mg, Week 52
  PRO-C3 change from baseline: −23.05 (4.76)
  mean difference vs placebo in PRO-C3 change from baseline: −22.1
[1]; [2]
  Change from Baseline in PRO-C3, Mean: -0.69 ng/mL
  Change from Baseline in PRO-C3, Median: 4.30 ng/mL
[1]; [3]
  Change from Baseline in PRO-C3, Mean: -7.20 ng/mL
  Change from Baseline in PRO-C3, Median: 0.40 ng/mL
[1]; [4]
  Change from Baseline in PRO-C3, Mean: -11.51 ng/mL
  Change from Baseline in PRO-C3, Median: -13.65 ng/mL
[1]; [5]
  Change from Baseline in PRO-C3, Mean: -15.79 ng/mL
  Change from Baseline in PRO-C3, Median: -10.10 ng/mL
[1]; [6]
  Change from Baseline in PRO-C3, Mean: -22.42 ng/mL
  Change from Baseline in PRO-C3, Median: -11.90 ng/mL
[1]; [7]
  Change from Baseline in PRO-C3, Mean: -27.42 ng/mL
  Change from Baseline in PRO-C3, Median: -18.30 ng/mL
[1]; F3 patients, 80 mg, Week 52
  PRO-C3 change from baseline: −22.42 (6.38)
[1]; F3 patients, 100 mg, Week 52
  PRO-C3 change from baseline: −27.42 (6.72)
[1]; [8]
  Change from Baseline in PRO-C3, Mean: -17.93 ng/mL
  Change from Baseline in PRO-C3, Median: -11.95 ng/mL
[1]; [9]
  Change from Baseline in PRO-C3, Mean: -23.05 ng/mL
  Change from Baseline in PRO-C3, Median: -13.40 ng/mL
CYP2C8
  effect of concomitant CYP2C8 inhibitor on exposure: increase resmetirom Cmax and AUC
